Test results published in patent US12268694B2, “Combination pharmaceutical agents as RSV inhibitors” (Enanta Pharmaceuticals, Inc., priority 2017, dated 2025).
pEC50: −log10 of the molar value. Where two headings read alike, the source gives them in different places.

What was measured:
[1] = system: genotype A, "Long" strain RSV; assay: RSV-A assay: CPE protection in HEp-2 cells, ATPlite readout; type: cell-based, human respiratory syncytial virus
How it was run: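 HEp-2 cells (8,000/well) with 2-fold compound dilutions in duplicate, infected with Long-strain RSV at MOI 0.1 and incubated 5 days. Cell ATP measured by ATPlite luminescence to give EC50; uninfected parallel plate gives CC50.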

HEp-2 cells = assay: Cytotoxicity in parallel to the RSV-A assay (no virus), ATPlite readout; type: cell-based, human
Protocol: Following extensive parameter testing, the final assay is run as follows: HEp-2 cells are seeded into the inner 60 wells of a 96-well plate at 8,000 cells per well in a volume of 50 μL using Growth Media (DMEM without phenol red, 1% L-Glut, 1% Penn/Strep, 1% nonessential amino acids, 10% heat-inactivated FBS). 2-fold serial dilutions of control and test compounds are added to the wells in duplicate in a total volume of 25 μL. Viral stock is then added to the wells at a multiplicity of infection (MOI) of 0.1 in a volume of 25 μL, bringing the total volume of each well to 100 μL. The MOI is calculated using the PFU/mL, or TCID50 if unavailable. Each 96-well plate has a control column of 6 wells with cells and virus but no compound (negative control, max CPE), a column with cells but no compound or virus (positive control, minimum CPE), and a column with no cells or virus or compound (background plate/reagent control). The control wells with cells but no virus are given an additional 25 μL of growth media containing an equal quantity of sucrose as those wells receiving the viral stock in order to keep consistent in media and volume conditions. The outer wells of the plate are filled with 125 μL of moat media (DMEM, 1% Penn/Strep) to act as a thermal and evaporative moat around the test wells. Following a 5-day incubation period, the plates are read using ATPlite (50 μL added per well), which quantifies the amount of ATP (a measure of cell health) present in each well. Assay plates are read using the Envision luminometer. In parallel, cytotoxicity is examined on an additional 96-well plate treated in an identical manner, but substituting the 25 μL of viral stock for 25 μL of growth media. […] EC50 ranges are as follows: A <0.4 μM; B 0.4-0.8 μM; C >0.8 μM and CC50 ranges are as follows: A >50 μM; B 10-50 μM; C <10 μM.

[2] = human respiratory syncytial virus, HEp-2, read-out: Human RSV-A (“Long” strain) EC50
[3] = HEp-2 cells, RSV-A Long strain, ATPlite readout, read-out: Human RSV-A (“Long” strain) EC50

| SMILES | pEC50 [1, 2] | CC50 (HEp-2 cells) [nM] | pEC50 [1, 3] |
| --- | --- | --- | --- |
| COCCOc1cccc(-c2nnc(NC3N=C(c4ccccc4)c4ccccc4NC3=O)o2)c1 (stereo not shown) [Example 1] | < 6.10 | > 50000 |  |
| O=C1Nc2ccccc2C(c2ccccc2)=NC1Nc1nnc(-c2ccccc2)o1 (stereo not shown) [Example 2] | < 6.10 | > 50000 |  |
| O=C1Nc2ccccc2C(c2ccccc2)=NC1Nc1nnc(-c2cccc(F)c2)o1 (stereo not shown) [Example 3] | < 6.10 | > 50000 |  |
| COc1cccc(-c2nnc(NC3N=C(c4ccccc4)c4ccccc4NC3=O)o2)c1 (stereo not shown) [Example 4] | < 6.10 | > 50000 |  |
| O=C1Nc2ccccc2C(c2ccccc2)=NC1Nc1nnc(C2CC2)o1 (stereo not shown) [Example 5] | < 6.10 | > 50000 |  |
| O=C1Nc2ccccc2C(c2ccccc2)=NC1Nc1nnc(-c2ccccc2F)o1 (stereo not shown) [Example 6] | < 6.10 | > 50000 |  |
| O=C1Nc2ccccc2C(c2ccccc2)=N[C@H]1Nc1nnc(-c2ccc(F)cc2)o1 [Example 7b] | < 6.10 | 10000 to 50000 |  |
| COc1ccc(-c2nnc(NC3N=C(c4ccccc4)c4ccccc4NC3=O)o2)cc1 (stereo not shown) [Example 8] | < 6.10 | > 50000 |  |
| COc1ccccc1-c1nnc(NC2N=C(c3ccccc3)c3ccccc3NC2=O)o1 (stereo not shown) [Example 9] | < 6.10 | > 50000 |  |
| O=C1Nc2ccccc2C(c2ccccc2)=N[C@@H]1Nc1nnc(-c2ccco2)o1 [Example 10a] | 6.10 to 6.40 | > 50000 |  |
| O=C1Nc2ccccc2C(c2ccccc2)=N[C@H]1Nc1nnc(-c2ccco2)o1 [Example 10b] | < 6.10 | < 10000 |  |
| O=C1Nc2ccccc2C(c2ccccc2)=NC1Nc1nnc(-c2ccccn2)o1 (stereo not shown) [Example 11] | 6.10 to 6.40 | > 50000 |  |
| N#Cc1ccc(-c2nnc(NC3N=C(c4ccccc4)c4ccccc4NC3=O)o2)cc1 (stereo not shown) [Example 12] | 6.10 to 6.40 | > 50000 |  |
| O=C1Nc2ccccc2C(c2ccccc2)=NC1Nc1nnc(-c2ccc(Cl)cc2)o1 (stereo not shown) [Example 13] | > 6.40 | > 50000 |  |
| COc1cc(-c2nnc(NC3N=C(c4ccccc4)c4ccccc4NC3=O)o2)ccc1F (stereo not shown) [Example 14] | > 6.40 | 10000 to 50000 |  |
| CC(C)Oc1cccc(-c2nnc(NC3N=C(c4ccccc4)c4ccccc4NC3=O)o2)c1 (stereo not shown) [Example 15] | 6.10 to 6.40 | > 50000 |  |
| O=C1Nc2ccccc2C(c2ccccc2)=NC1Nc1nnc(-c2ccc3ccccc3c2)o1 (stereo not shown) [Example 16] | 6.10 to 6.40 | > 50000 |  |
| O=C1Nc2ccccc2C(c2ccccc2)=NC1Nc1nnc(-c2cccc3ccccc23)o1 (stereo not shown) [Example 17] | < 6.10 | > 50000 |  |
| Cc1nnc(NC2N=C(c3ccccc3)c3ccccc3NC2=O)o1 (stereo not shown) [Example 18] | < 6.10 | > 50000 |  |
| COCCCc1sc(C)nc1-c1nnc(N[C@H]2N=C(c3ccccc3)c3ccccc3NC2=O)o1 [Example 479] | < 6.10 |  |  |
| O=C1Nc2ccccc2C(c2ccccc2)=N[C@@H]1Nc1nnc(-c2nc(C(F)(F)F)sc2N2CCO[C@@H]3C[C@@H]32)o1 [Example 484] |  |  | > 6.40 |
| O=C1Nc2ccccc2C(c2ccccc2)=N[C@@H]1Nc1nnc(-c2nc(C(F)(F)F)sc2N2CCO[C@H]3C[C@H]32)o1 [Example 485] |  |  | < 6.10 |
| O=C1Nc2ccccc2C(c2ccccc2)=N[C@H]1Nc1nnc(-c2nc(C(F)(F)F)sc2N2CCO[C@@H]3C[C@@H]32)o1 [Example 486] |  |  | < 6.10 |
| O=C1Nc2ccccc2C(c2ccccc2)=N[C@H]1Nc1nnc(-c2nc(C(F)(F)F)sc2N2CCO[C@H]3C[C@H]32)o1 [Example 487] |  |  | < 6.10 |
| O=C1Nc2ccccc2C(c2ccccc2)=N[C@H]1Nc1nnc(-c2cn(CC(F)(F)F)nc2N2CCOCC2)o1 [Example 488] |  |  | > 6.40 |
| O=C1Nc2ccccc2C(c2ccccc2)=N[C@@H]1Nc1nnc(-c2cn(CC(F)(F)F)nc2N2CCOCC2)o1 [Example 489] |  |  | < 6.10 |
| O=C1Nc2ccccc2C(c2ccccc2)=N[C@@H]1Nc1nnc(-c2nc(C3(C(F)(F)F)CCC3)sc2N2CCOCC2)o1 [Example 490] | > 6.40 |  |  |
